The source of these data is BindingDB's records for doi:10.1016/s0960-894x(98)00716-1 (Novartis Biomedical Research Institute, 1999).

The test concerns the target Stromelysin-1 (MMP-3). The test is described as follows: In vitro inhibitory activity against matrix metalloprotease-3.
With `CCC[C@H]1CC[C@@](CS)(C(=O)N[C@@H](Cc2ccccc2)C(=O)NC)CC1` [1-Mercaptomethyl-4-propyl-cyclohexanecarboxylic acid ((S)-1-methylcarbamoyl-2-phenyl-ethyl)-amide], the IC50 (usually the concentration that gives 50% inhibition) is more than 10000 nM.
The result for `CNC(=O)[C@H](Cc1ccccc1)NC(=O)C1(CS)CCCCC1` [1-Mercaptomethyl-cyclohexanecarboxylic acid ((S)-1-methylcarbamoyl-2-phenyl-ethyl)-amide] reads 9200 nM; that for `CCO[C@H]1CC[C@@](CS)(C(=O)N[C@@H](Cc2ccccc2)C(=O)NCc2ccccc2)CC1` [4-Ethoxy-1-mercaptomethyl-cyclohexanecarboxylic acid ((S)-1-benzylcarbamoyl-2-phenyl-ethyl)-amide], 207 nM; that for `CCO[C@H]1CC[C@@](CS)(C(=O)N[C@@H](Cc2ccccc2)C(=O)NC2CCCCC2)CC1` [4-Ethoxy-1-mercaptomethyl-cyclohexanecarboxylic acid ((S)-1-cyclohexylcarbamoyl-2-phenyl-ethyl)-amide], 617 nM.
The result for `CCO[C@H]1CC[C@@](CS)(C(=O)N[C@@H](Cc2ccccc2)C(=O)NC2CCCC2)CC1` [4-Ethoxy-1-mercaptomethyl-cyclohexanecarboxylic acid ((S)-1-cyclopentylcarbamoyl-2-phenyl-ethyl)-amide] reads 666 nM; that for `CCO[C@H]1CC[C@@](CS)(C(=O)N[C@@H](Cc2ccccc2)C(=O)NC)CC1` [4-Ethoxy-1-mercaptomethyl-cyclohexanecarboxylic acid ((S)-1-methylcarbamoyl-2-phenyl-ethyl)-amide], 640 nM.
For `CCO[C@H]1CC[C@@](CS)(C(=O)N[C@@H](Cc2ccccc2)C(=O)Nc2ccc(Cl)cc2)CC1` [4-Ethoxy-1-mercaptomethyl-cyclohexanecarboxylic acid [(S)-1-(4-chloro-phenylcarbamoyl)-2-phenyl-ethyl]-amide] the value was 113 nM; for `CCO[C@H]1CC[C@@](CS)(C(=O)N[C@@H](Cc2ccccc2)C(=O)Nc2ccc(OC)cc2)CC1` [4-Ethoxy-1-mercaptomethyl-cyclohexanecarboxylic acid [(S)-1-(4-methoxy-phenylcarbamoyl)-2-phenyl-ethyl]-amide], 39 nM; for `CCOc1ccc(C[C@H](NC(=O)[C@]2(CS)CC[C@H](OCC)CC2)C(=O)Nc2ccccc2)cc1` [4-Ethoxy-1-mercaptomethyl-cyclohexanecarboxylic acid [(S)-2-(4-ethoxy-phenyl)-1-phenylcarbamoyl-ethyl]-amide], 139 nM.
Regarding `CCO[C@H]1CC[C@@](CS)(C(=O)N[C@@H](Cc2ccc(F)cc2)C(=O)Nc2ccccc2)CC1` [4-Ethoxy-1-mercaptomethyl-cyclohexanecarboxylic acid [(S)-2-(4-fluoro-phenyl)-1-phenylcarbamoyl-ethyl]-amide], inhibition was half-maximal at 134 nM (IC50).
For `CCO[C@H]1CC[C@@](CS)(C(=O)N[C@@H](Cc2ccc(OC)cc2)C(=O)Nc2ccccc2)CC1` [4-Ethoxy-1-mercaptomethyl-cyclohexanecarboxylic acid [(S)-2-(4-methoxy-phenyl)-1-phenylcarbamoyl-ethyl]-amide] the value was 62 nM; for `CCO[C@H]1CC[C@@](CS)(C(=O)N[C@@H](Cc2ccccc2)C(=O)Nc2ccc(OC(F)(F)F)cc2)CC1` [4-Ethoxy-1-mercaptomethyl-cyclohexanecarboxylic acid [(S)-2-phenyl-1-(4-trifluoromethoxy-phenylcarbamoyl)-ethyl]-amide], 175 nM.
The result for `CCO[C@H]1CC[C@@](CS)(C(=O)N[C@@H](Cc2ccccc2)C(=O)Nc2ccccn2)CC1` [4-Ethoxy-1-mercaptomethyl-cyclohexanecarboxylic acid [(S)-2-phenyl-1-(pyridin-2-ylcarbamoyl)-ethyl]-amide] reads 449 nM; that for `CNC(=O)[C@H](Cc1ccccc1)NC(=O)[C@]1(CS)CC[C@H](C(C)(C)C)CC1` [4-tert-Butyl-1-mercaptomethyl-cyclohexanecarboxylic acid ((S)-1-methylcarbamoyl-2-phenyl-ethyl)-amide], more than 10000 nM; that for `CNC(=O)[C@H](Cc1ccccc1)NC(=O)[C@@]1(CS)CCCC(OC)C1` (stereo partly drawn) [(R)-1-Mercaptomethyl-3-methoxy-cyclohexanecarboxylic acid ((S)-1-methylcarbamoyl-2-phenyl-ethyl)-amide], more than 10000 nM.
